As a reminder, the AUC(0-inf) is the area under the concentration-time curve extrapolated to infinity. Usually pKd stands for −log10 of the Kd, conventionally taken in molar units.

The test system of data set [1] is Salmonella typhimurium TA102. In words: Salmonella typhimurium reverse mutation test, TA102. Format: cell-based. The arrangement: key: + indicates a positive mutagenic result; − indicates a negative mutagenic result. Here is the method:
(§1) The revived strains or a single colony from the master plate were inoculated into the broth, and cultured in a thermostat gas bath vibrator at 100 to 120 rpm and 37±1° C. for 10 to 16 hours, marked and stored for later use. The bottom agar medium (containing an appropriate amount of agar, Vogel-Bonner buffer, 20% glucose solution and 20% magnesium sulfate solution) was poured into a six-well plate, approximately […] into each well, and allowed to cool and solidify naturally, marked each well and stored for later use.
(§2) Three wells were set up in each group for parallel experiments. The top agar medium was sterilized under high pressure and kept warm at about 65° C. In each test tube, 0.1 mL of negative control (DMSO) or positive control or test sample, 0.1 mL of bacterial solution suspension, 0.5 mL of phosphate buffer (0.2M PBS) (−S9) or 0.5 mL of S9 mixed solution (+S9) and 2.5 mL top culture medium were added, after vortex mixing, and then quickly and evenly spread on the culture dish which was already spreaded with the bottom agar medium. After natural cooling and solidification, the culture dish was inverted and placed in a 37° C. incubator for 48 to 72 hours. After culturing for 48 to 72 hours, the culture dish was taken out, and the number of revertant colonies in each well was counted, the growth background was observed under a microscope to determine whether there was antibacterial or bactericidal activity, and the experimental results were recorded.

The test system of data set [2] is Salmonella typhimurium TA100. Briefly: Salmonella typhimurium reverse mutation test, TA100. Format: cell-based. Further details: key: + indicates a positive mutagenic result; − indicates a negative mutagenic result. Here is the method:
as §1, §2

Data set [3] is described as follows: Exposure determination in beagle dogs. The conditions noted are these: dog, single oral gavage 4.5 mg/kg, plasma. Format: in vivo. Here is the method:
• 1. Experimental purpose: The purpose of this test is to test the exposure of the compound in beagle dogs • 2. Experimental methods: Beagle dogs were housed with a standard light cycle (12 hours light/12 hours dark), at a room temperature of 18-26° C. and a relative humidity of 40-70%, with free access to water and normal diet. Five days prior to the study, the beagle dogs were randomly assigned to groups based on their body weight for the study, including an oral administration group (n=3/group). The administration volume was calculated according to the weight of the animals on the day of administration, and the administration volume was 5 mL/kg, the single oral gavage administration was performed at a dose of 4.5 mg/kg, and the solvent was 1% HEC and 0.25% Tween 80 in Water. Blood was collected from the forelimb vein or other suitable veins at 0.5 h, 1 h, 2 h, 4 h, 6 h, 8 h, 12 h, 24 h, 48 h, 72 h and 96 h after administration. About 1 mL of each sample was collected, K2-EDTA anticoagulated, placed on ice after collection, and within 1 hour, centrifuged to separate plasma (centrifugation conditions: 2200 g, 10 minutes, 2-8° C.) for blood drug concentration detection.

Another data set concerns the target T1, human Apo(a) protein (Homo sapiens, UniProt P08519).
T1 construct: biotin (biotinylated)
In words: BLI affinity of compounds to Apo(a). Format: binding. The settings on record: biotinylated apolipoprotein(a) on SA sensor, compound 100 nM. Here is the method: • 1. Experimental purpose: The purpose of this test is to test the affinity of the compounds of the present disclosure to Apo(a) • 2. Experimental instruments and reagents: • Molecular interaction analyzer (ForteBio Octet red 96e), • SA sensor (ForteBio), • 96-well plates were purchased from Greine, • 3. Experimental methods:
Prepared two 96-well plates, one as a sample plate and another as a pre-wett plate, curing buffer was added to a 200 μL well of the pre-wet plate, and the SA sensor was pre-wetted for at least ten minutes. All reagents and samples were added to another black sample plate, after the sample addition was completed, the sensor plate and the sample plate were placed into the ForteBio Octet red 96e instrument. The program was set up in sequence for detection. The experimental temperature was set to 30° C. and the acquisition frequency was set at 5.0 Hz. The biosensor was run in 1×PBS, pH7.4, 0.02% Tween-20, 0.1% BSA in the first column for 60 seconds, which was the baseline step. Biotinylated apolipoprotein(a) was diluted to 40 μg/ml with 1×PBS, pH7.4, 0.02% Tween-20, 0.1% BSA, and added to the second column, where it was run for a period of time until the amount of curing on the sensor reaches 2.0 nm. The biosensor was run in 1×PBS, pH7.4, 0.02% Tween-20, 0.1% BSA in the third column for 60 seconds, which was the baseline step. The compound was diluted to 100 nM with 1×PBS, pH7.4, 0.02% Tween-20, 0.1% BSA, and added to the fourth column, where the sensor was run for 60 seconds. The sensor was run in 1×PBS, pH7.4, 0.02% Tween-20, 0.1% BSA in the third column for 120 seconds, during this process, the compound dissociated from the sensor. The affinity constant KD reflects the size of the interaction binding ability. When the concentration of the analyte is at KD, the equilibrium signal Req is half of Rmax.

pKd: −log10 of the molar value.

T1 sequence (P08519 20-2040): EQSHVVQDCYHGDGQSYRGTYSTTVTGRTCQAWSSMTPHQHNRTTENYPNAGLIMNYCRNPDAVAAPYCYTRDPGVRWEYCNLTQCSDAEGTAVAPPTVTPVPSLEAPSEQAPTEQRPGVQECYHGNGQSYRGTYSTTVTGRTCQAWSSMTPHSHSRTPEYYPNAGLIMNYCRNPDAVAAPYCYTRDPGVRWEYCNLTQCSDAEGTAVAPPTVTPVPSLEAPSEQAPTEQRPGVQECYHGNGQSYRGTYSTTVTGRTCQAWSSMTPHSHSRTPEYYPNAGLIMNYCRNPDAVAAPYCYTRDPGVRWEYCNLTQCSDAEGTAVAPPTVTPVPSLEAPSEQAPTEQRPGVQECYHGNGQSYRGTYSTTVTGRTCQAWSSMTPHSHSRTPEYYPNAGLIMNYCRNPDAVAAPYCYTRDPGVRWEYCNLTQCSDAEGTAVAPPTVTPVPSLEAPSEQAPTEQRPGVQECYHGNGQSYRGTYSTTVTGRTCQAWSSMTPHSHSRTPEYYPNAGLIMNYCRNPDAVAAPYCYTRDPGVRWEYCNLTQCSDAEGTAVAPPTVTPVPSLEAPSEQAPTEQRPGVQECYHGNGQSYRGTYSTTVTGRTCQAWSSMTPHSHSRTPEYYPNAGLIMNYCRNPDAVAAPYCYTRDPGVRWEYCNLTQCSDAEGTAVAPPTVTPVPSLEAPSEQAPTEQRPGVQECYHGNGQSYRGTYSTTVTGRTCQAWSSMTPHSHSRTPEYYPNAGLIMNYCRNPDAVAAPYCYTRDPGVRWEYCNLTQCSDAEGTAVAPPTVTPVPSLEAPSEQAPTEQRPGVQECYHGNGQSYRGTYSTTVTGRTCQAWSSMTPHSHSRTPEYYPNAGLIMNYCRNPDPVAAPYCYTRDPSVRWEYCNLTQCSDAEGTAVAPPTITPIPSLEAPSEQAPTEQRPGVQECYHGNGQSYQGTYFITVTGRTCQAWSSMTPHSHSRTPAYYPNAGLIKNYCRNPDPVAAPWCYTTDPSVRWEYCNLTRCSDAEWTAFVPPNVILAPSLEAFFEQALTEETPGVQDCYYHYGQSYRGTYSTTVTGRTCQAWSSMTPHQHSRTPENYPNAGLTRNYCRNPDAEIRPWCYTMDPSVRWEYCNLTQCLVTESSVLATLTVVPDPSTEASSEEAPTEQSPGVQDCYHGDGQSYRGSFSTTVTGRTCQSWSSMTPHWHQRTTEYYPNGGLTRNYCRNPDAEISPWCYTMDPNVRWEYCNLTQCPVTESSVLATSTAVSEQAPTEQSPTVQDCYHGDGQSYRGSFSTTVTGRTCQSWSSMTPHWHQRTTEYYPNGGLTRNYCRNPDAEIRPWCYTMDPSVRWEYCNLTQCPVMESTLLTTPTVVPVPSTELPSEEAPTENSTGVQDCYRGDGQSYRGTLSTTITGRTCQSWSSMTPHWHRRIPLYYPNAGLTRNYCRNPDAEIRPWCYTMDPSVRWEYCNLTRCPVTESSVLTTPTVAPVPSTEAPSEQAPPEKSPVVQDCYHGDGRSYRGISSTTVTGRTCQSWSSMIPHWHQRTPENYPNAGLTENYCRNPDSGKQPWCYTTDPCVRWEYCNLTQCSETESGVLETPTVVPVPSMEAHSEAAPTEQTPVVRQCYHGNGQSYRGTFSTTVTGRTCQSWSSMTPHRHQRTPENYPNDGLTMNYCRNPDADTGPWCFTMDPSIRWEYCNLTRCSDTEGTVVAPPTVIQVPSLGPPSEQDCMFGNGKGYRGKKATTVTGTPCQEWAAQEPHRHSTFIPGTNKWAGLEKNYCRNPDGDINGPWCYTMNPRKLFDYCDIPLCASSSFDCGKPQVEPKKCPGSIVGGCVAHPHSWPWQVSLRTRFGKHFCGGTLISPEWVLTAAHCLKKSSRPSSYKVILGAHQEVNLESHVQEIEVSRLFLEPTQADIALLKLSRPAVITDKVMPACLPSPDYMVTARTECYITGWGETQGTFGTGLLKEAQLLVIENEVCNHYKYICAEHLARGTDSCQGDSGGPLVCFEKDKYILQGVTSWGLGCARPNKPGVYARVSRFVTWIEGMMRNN

With `O=C(O)[C@@H](Cc1cccc(CN(Cc2cccc(C[C@H](C(=O)O)[C@H]3CCNC3)c2)Cc2cccc(C[C@H](C(=O)O)[C@H]3CCNC3)c2)c1)[C@H]1CCNC1` [Comparative Example 1, reference compound], the mutagenicity result was “−” in data set [1] (TA102, +S9, 62 μg/dish); “−” in data set [1] (TA102, +S9, 185 μg/dish); “−” in data set [1] (TA102, +S9, 556 μg/dish); “−” in data set [1] (TA102, +S9, 1667 μg/dish); “−” in data set [1] (TA102, +S9, 5000 μg/dish); “−” in data set [1] (TA102, −S9, 62 μg/dish). Moreover, the mutagenicity entry in data set [1] (TA102, −S9, 185 μg/dish) is recorded as “−”; in data set [1] (TA102, −S9, 556 μg/dish) it was “−”; in data set [1] (TA102, −S9, 1667 μg/dish), “−”; in data set [1] (TA102, −S9, 5000 μg/dish) it was “−”; in data set [2] (TA100, +S9, 62 μg/dish) it was “−”; in data set [2] (TA100, +S9, 185 μg/dish), “−”. Further, the mutagenicity result is recorded as “−” in data set [2] (TA100, +S9, 556 μg/dish); “−” in data set [2] (TA100, +S9, 1667 μg/dish); “−” in data set [2] (TA100, +S9, 5000 μg/dish); “−” in data set [2] (TA100, −S9, 62 μg/dish); “−” in data set [2] (TA100, −S9, 185 μg/dish); “−” in data set [2] (TA100, −S9, 556 μg/dish). Moreover, the mutagenicity entry in data set [2] (TA100, −S9, 1667 μg/dish) is recorded as “−”; in data set [2] (TA100, −S9, 5000 μg/dish), “−”. The same molecule had an AUC(0-inf) in data set [3] of 37400 ng·h/mL.
Regarding `O=C(O)[C@@H](Cc1cccc(CN(Cc2cccc(C[C@H](C(=O)O)[C@H]3CCNC3)c2)C(=O)c2cccc(C[C@H](C(=O)O)[C@H]3CCNC3)c2)c1)[C@H]1CCNC1` [Example 5], the mutagenicity result in data set [1] (TA102, +S9, 62 μg/dish) is reported as “−”; in data set [1] (TA102, +S9, 185 μg/dish), “−”; in data set [1] (TA102, +S9, 556 μg/dish) it was “−”; in data set [1] (TA102, +S9, 1667 μg/dish) it was “−”; in data set [1] (TA102, +S9, 5000 μg/dish) it was “−”; in data set [1] (TA102, −S9, 62 μg/dish), “−”. For the same molecule, the mutagenicity result in data set [1] (TA102, −S9, 185 μg/dish) was “−”; in data set [1] (TA102, −S9, 556 μg/dish) it was “−”; in data set [1] (TA102, −S9, 1667 μg/dish), “−”; in data set [1] (TA102, −S9, 5000 μg/dish) it was “−”; in data set [2] (TA100, +S9, 62 μg/dish), “−”; in data set [2] (TA100, +S9, 185 μg/dish), “−”. For the same molecule, the mutagenicity entry in data set [2] (TA100, +S9, 556 μg/dish) was “−”; in data set [2] (TA100, +S9, 1667 μg/dish), “−”; in data set [2] (TA100, +S9, 5000 μg/dish), “−”; in data set [2] (TA100, −S9, 62 μg/dish), “−”; in data set [2] (TA100, −S9, 185 μg/dish), “−”; in data set [2] (TA100, −S9, 556 μg/dish) it was “−”. Also, the mutagenicity entry in data set [2] (TA100, −S9, 1667 μg/dish) is on record as “−”; in data set [2] (TA100, −S9, 5000 μg/dish), “−”. Moreover, the AUC(0-inf) in data set [3] worked out at 119000 ng·h/mL. Further, on human Apo(a) protein, the pKd is 7.96.

(Values after US20260234125A1, “CYCLIC AMINE DERIVATIVE, AND COMPOSITION AND USE THEREOF” (SHANGHAI JINGXIN BIOMEDICAL CO., LTD., priority 2023, published 2026).)
